{"source": "patent US20060014727A1", "about": "“Angiogenic compounds and uses thereof” (priority 2002, published 2006)", "key": {"[1]": {"system": "chick chorioallantoic membrane (CAM)", "test": "Chick chorioallantoic membrane (CAM) assay", "type": "in vivo, Gallus gallus domesticus", "conditions": "20, 40 and 60 μg/ml, 20 μl on gelatin sponge, day 8 to day 10", "procedure": "Fertilized White Leghorn chicken eggs (Gallus gallus domesticus) were incubated at 37° C. under conditions of constant humidity. All chick eggs were handled according to institutional animal care procedures. On embryonic day 6, the developing chick chorioallantoic membrane (CAM) was separated from the shell by opening a small circular window at the broad end of the egg above the air sac. The embryos were checked for normal development, the window sealed with Parafilm, and the eggs returned to the incubator for 2 more days. On day 8, CAMs were treated with FGF-2 (30 ng/ml), sokotrasterol sulphate (20, 40 and 60 μg/ml) or PBS by loading 20 μl onto 2-mm^3 gelatin sponges (Gelfoam; Pharmacia Upjohn), which were then placed on the surface of the developing CAM. Eggs were resealed and returned to the incubator. On day 10, images of the CAMs were captured digitally using an Olympus SZX9 stereomicroscope (Olympus America) equipped with a Spot RT digital imaging system (Diagnostic Instruments). Neovascularization was quantitated for each CAM by counting the number of vessels that entered the sponge area, and dividing by the perimeter of the sponge (vessels/mm). Northern Eclipse version 6.0 (Empix Imaging Inc.) was used for manual vessel counting and mesh perimeter measurements."}, "[2]": {"system": "Human umbilical vein endothelial cells (HUVEC)", "test": "Endothelial sprouting assay", "type": "cell-based", "conditions": "HUVEC-coated beads in fibrin gels, 3 days, 0.625 μg/ml to 5 μg/ml, FIG. 1, averages from seven independent experiments", "procedure": "Human umbilical vein endothelial cells (HUVEC) from normal umbilical cords were obtained by collagenase treatment. Cultures were propagated in MCDB medium supplemented with 15% FCS, heparin, and endothelial cell growth supplement. Endothelial sprouting was assessed by a modification of the method of Nehls and Drenckhahn ^14. Briefly, microcarrier beads coated with gelatin (Cytodex 3, Sigma) were seeded with HUVEC. When the cells reached confluence on the beads, equal numbers of […] beads were embedded in fibrin gels in 96-well plates. For preparation of fibrin gels, bovine fibrinogen was dissolved in MCDB at a concentration of 2.5 mg/ml. Aprotinin was added at a concentration of 0.05 mg/ml and the solution filtered through a 0.22 micron filter. Fibrinogen solution was supplemented with FGF-2 or sokotrasterol sulphate. As a control, fibrinogen solution without angiogenic factor was used. Following transfer of the fibrinogen solution to 96-well plates, HUVEC-coated beads were added at a density of 50 beads/well, and clotting was induced by the addition of thrombin (1.2 U/ml). […] After 3 days of incubation with daily medium changes, the number of capillary-like tubes formed was quantitated by counting the number of tube-like structures per microcarrier bead (sprouts/bead). Only sprouts greater than 150 μm in length and composed of at least 3 endothelial cells were counted. […]"}, "[3]": {"conditions": "listed as Sokotrasterol sulphate"}}, "data": [{"substance": "sokotrasterol sulphate", "values": [{"measurement": "neovascularization: number of vessels entering the gelatin sponge per mm of perimeter (vessels/mm)", "setting": "[1]", "result": "positive concentration-dependent effect"}, {"measurement": "neovascularization: number of vessels entering the gelatin sponge per mm of perimeter (vessels/mm)", "setting": "[1]; [3]", "result": "promotes angiogenesis"}, {"measurement": "endothelial sprouting (number of tube-like structures per microcarrier bead, sprouts/bead)", "setting": "[2]", "result": "promoted endothelial sprouting in vitro in a concentration-dependent manner"}, {"measurement": "endothelial sprouting (number of tube-like structures per microcarrier bead, sprouts/bead)", "setting": "[2]; [3]", "result": "promotes endothelial sprouting in vitro"}]}]}
